pIC50: −log10 of the molar value. Where two headings read alike, the source gives them in different places.
Tests used:
[1] = system: LNCaP; experiment: Growth inhibition assay (MTT), LNCaP prostate cancer cells; type: cell-based; details: Day 7, MTT
Procedure: (§1) Assays were conducted on compound 46 (SR13654) to determine its growth inhibitory effect on three prostate cancer cell lines, LNCaP, DU-145 and PC-3. The methods were described briefly herein. LNCaP and PC-3 cells will be maintained in […] medium, and DU-145 cells in Eaglets minimal essential medium (MEM) medium supplemented with nonessential amino acids, 2 mM glutamine and 1 mM pyruvate. All media will contain 10% fetal bovine serum (FCS). To screen compounds for their effect on cell proliferation, cells are seeded in 96-well plates at 2000 cells/well in 200 μL of medium. After cells are allowed to attach for 24 h, test compound is added to each well in 10 μL aliquots and control wells receive vehicle only. Medium and test solutions are replaced every other day. On Day 7, viable cells are measured with the MTT assay, using the protocol provided by the manufacturer (Promega, Madison, Wis.).

[2] = system: DU-145; experiment: Growth inhibition assay (MTT), DU-145 prostate cancer cells; type: cell-based; details: Day 7, MTT
Procedure: as §1

[3] = system: Ishikawa cells (endometrial carcinoma cells); experiment: Ishikawa assay (alkaline phosphatase induction), estrogenic and antiestrogenic activity; type: cell-based, human; details: AlkP induction, 72 hours; for Ishikawa Assay Anti-Estrogenic Activity at 10 μM: unit assumed
Procedure: Estrogenic and antiestrogenic activities were determined using the Ishikawa assay (Littlefield, B. A., Endocrinology 127: 2757-2762, 1990). The activities were measured at 10 μM concentrations of the test compounds. Human Ishikawa cells (endometrial carcinoma cells) are very sensitive to estrogens, and compounds with estrogenic activity induce alkaline phosphatase (AlkP) enzyme activity in these cells when administered at levels as low as 10^−12 M. Ishikawa cells were grown in growth medium supplemented with glutamine, sodium pyruvate, and 10% animal serum. At 24 hours before the experiment, the medium was replaced with medium free of phenol red and containing 5% animal serum that had been treated to remove endogenous estrogens. On Day 1, the cells were harvested and plated in fresh phenol red-free medium, and test solutions were added with or without the estrogen 17β-estradiol. After the treated cells were incubated for 72 hours, the AlkP assay was used to determine the estrogenic and antiestrogenic activity of the test compounds. Like the tetrazolium blue assay described above, this assay involves calorimetric detection using an ELISA plate reader, but here the indicator dye is yellow.

[4] = system: PC-3; experiment: Growth inhibition assay (MTT), PC-3 prostate cancer cells; type: cell-based; details: Day 7, MTT
Procedure: as §1

[5] = system: Tamoxifen-resistant MCF-7; experiment: Growth inhibition assay (tetrazolium blue), tamoxifen-resistant MCF-7 cells; type: cell-based
Procedure: (§2) Growth inhibition assays were conducted using DIM, LT, and some of the novel compounds of the invention on several breast cancer cell lines. The cell lines studied were MCF-7 (ER^+), MDA-MB-231 (ER^−), and a tamoxifen-resistant strain of MCF-7 (ER^+). The growth assays were conducted according to the method of Tiwari et al. (Tiwari, R. K., J Natl Cancer Inst 86:126-131, 1994). For growth Inhibition Assay, cells were grown in multi-well culture plates. Experiments were performed in quadruplicate. MCF-7 (ER^+) cells were grown in special medium containing 5% animal serum that had been treated to remove endogenous estrogens. After the plates were incubated at 37° C. for 24 hours, to each well was added test compound at various concentrations, with or without the estrogen 17β-estradiol (E2). The cells were then incubated for 7 days, with medium and test solutions replaced every other day. On Day 8, after the medium was removed and replaced with fresh medium without test solutions, the tetrazolium blue test was performed to determine the percentage of viable cells (viable cells convert the colorless tetrazolium to formazan, which is blue). At 4 hours after tetrazolium blue was added, the reaction was stopped and the formazan concentration was measured by detection of light absorbance at 575 nm in an enzyme linked immunosorbent assay (ELISA) plate reader. The percent growth inhibition was determined by dividing the ELISA results for samples containing test compounds by the results for control samples. […] (ER^−) cells were maintained and tested under the same conditions as described above, except that no estrogen was added.

[6] = system: MDA-MB-231 (ER−); experiment: Growth inhibition assay (tetrazolium blue), MDA-MB-231 (ER−) breast cancer cells; type: cell-based, human; details: for pIC50: no estrogen added
Procedure: as §2

[7] = system: MCF-7 (ER+); experiment: Growth inhibition assay (tetrazolium blue), MCF-7 (ER+) breast cancer cells; type: cell-based; details: for pIC50: 7 days incubation, tetrazolium blue; for inhibition at 1 µM: MCF7
Procedure: as §2

[8] = system: SKOV-3; experiment: Growth inhibition assay (MTT), SKOV-3 ovarian cancer cells; type: cell-based; details: Homo sapiens, SK-OV-3, 168 h; Day 7, MTT
Procedure: (§3) Assays were conducted on compound 74 (SR13668) to determine its growth inhibitory effect on two ovarian cancer cell lines, NIH-OVCAR-3 and SKOV-3. OVCAR-3 cells are routinely maintained in RPMI-1640 medium supplemented with 2 mM glutamine (GLN) and 10% fetal calf serum (FCS), and SKOV-3 cells in McCoy's 5A medium supplemented with 2 mM GLN and 10% FCS. Both cell lines are fed with fresh medium every other day and passaged every 6-7 days. To conduct the growth inhibition assay, cells from either cell line are seeded in 96-well plates at 2000 cells/well in 200 μL of medium. After cells are allowed to attach for 24 h, test compounds dissolved in dimethyl sulfoxide (DMSO) and further diluted with medium are added to each well in 10-μL aliquots. The final DMSO concentration is kept at 0.05%. Control wells receive vehicle only. Media and test solutions are replaced every other day. On Day 7, viable cells are measured with the MTT (tetrazolium blue) assay, using an MTT kit.

[9] = system: MDA-MB-231 human breast cancer xenografts; experiment: (ER−) MDA-MB-231 breast cancer xenografts in nude mice; type: in vivo, female Balb/c nude mice; details: 10, 30, and 100 mg/kg daily oral gavage, MDA-MB-231 xenograft
Procedure: As a further test of in vivo efficacy against estrogen-independent breast cancer, the novel compound 74 was administered to nude mice that had been implanted with (ER^−) MDA-MB-231 human breast cancer xenografts. To start, female Balb/c nude mice were implanted subcutaneously (s.c.) with MDA-MB-231 cells, using an inoculum of 5×10^6 cells in a medium-Matrigel mixture (1:1, v/v). When the mean tumor volume reached approximately 70 mm^3, compound was administered daily at three dose levels (10, 30, and 100 mg/kg) via oral gavage. The methods used in the study were essentially the similar to those described in Example 29 herein.

[10] = system: SKOV-3 human ovarian cancer xenografts; experiment: SKOV-3 human ovarian cancer xenografts in nude mice; type: in vivo, female Balb/c nude mice; details: 30 mg/kg orally daily from Day 0, SKOV-3 xenograft
Procedure: To start, female Balb/c nude mice were implanted subcutaneously (s.c.) with SKOV-3 cells in the flanks, using an inoculum of 5×10^6 cells in a medium-Matrigel mixture (1:1, v/v), and compound 74 (30 mg/kg) was orally administered daily via gavage from Day 0. Tumor volume and body weight were measured twice weekly.

[11] = system: MCF-7 breast cancer xenografts; experiment: ER+ MCF-7 breast cancer xenografts in nude mice; type: in vivo, female Balb/c nude mice; details: oral gavage daily, MCF-7 xenograft
Procedure: To study the in vivo activity of novel compound 74 against estrogen-dependent breast cancer, the compound was administered to nude mice that had been implanted with […] MCF-7 breast cancer cells. To start the experiment, female Balb/c nude mice were implanted subcutaneously (s.c.) with estrogen pellets two days prior to inoculation of cancer cells, for stimulation of cell growth. MCF-7 cells were then implanted s.c. in the flanks, using an inoculum of 5×10^6 cells in a medium-Matrigel mixture (1:1, v/v). When the mean tumor volume reached approximately 100 mm^3, the test compound in 0.5% hydroxypropylcellulose in sterile saline solution (or vehicle alone for controls) was administered orally by gavage daily. There were 7 mice in the experimental and control groups. Mice were examined daily for tumor growth, and tumors and body weight were measured twice weekly. The tumor volume is 4/3πr1^2r2, where r1 and r2 are the short radius and long radius, respectively. On Day 27, all the mice were sacrificed, and the major organs examined by a pathologist.

[12] = system: NIH-OVCAR-3; experiment: Growth inhibition assay (MTT), NIH-OVCAR-3 ovarian cancer cells; type: cell-based; details: Homo sapiens, OVCAR-3, 168 h; Day 7, MTT
Procedure: as §3

[13] = system: MDA-MB-231 human carcinoma cells; experiment: Boyden Chamber Invasion Assay; type: cell-based; details: 5 μM, 16 h end-point
Procedure: MDA-MB-231 human carcinoma cells was used for this Boyden Chamber Invasion Assay (Meng et al. (2000) J. Mol. Med. 78, 155-165; Meng et al. (2000) Breast Cancer Res. Treat. 63, 147-152). Briefly, to each well of a 24-well Biocoat invasion chamber plate, 0.6 mL of appropriate medium containing 10% FCSH 6 μg/ml Fibronectin is added, followed by gentle placement of a CCI in each well. To each CCI is added freshly harvested cells suspended in 200 μL of medium containing either the test compound or vehicle alone. The preparations are incubated at 37° C. for 16 h, and then the CCI is removed from each well, fixed for 10 min with 1 ml of 3.7% paraformaldehyde in PBS, and stained for 10 min in 1 mL of Wright-Giemsa stain solution. The stained CCI is placed on a glass microscope slide and the upper surface cells are carefully removed by scraping with a cotton swab. The cells on the lower surface are counted in a bright field microscope. The inhibitory effect of a test compound is calculated by dividing the number of cells in a treated preparation by that of the vehicle control and expressed as a percentage.

[14] = system: MDA-MB-231 human carcinoma cells; experiment: Parallel cell growth inhibition assay to the invasion study; type: cell-based; details: 16 h end-point

Row | SMILES | Ishikawa Assay Estrogenic Activity at 10 μM [3] | Ishikawa Assay Anti-Estrogenic Activity at 10 μM [3] [%] | pIC50 [5] | MDA-MB-231 (ER−) % Growth Inhibition at 10 μM [6] [%] | pIC50 [6] | MCF-7 (ER+) % Growth Inhibition at 1 μM [7] [%] | pIC50 [7] | pIC50 ([5]; Tamoxifen-resistant MCF7) | inhibition at 10 µM ([6]; Homo sapiens, MDA-MB-231) [%] | pIC50 ([6]; Homo sapiens, MDA-MB-231) | inhibition at 1 µM ([7]; Homo sapiens) [%] | pIC50 ([7]; Homo sapiens, MCF7, 168 h) | other results
1 | CCOC(=O)c1ccc2[nH]c(Cc3[nH]c4ccc(C(=O)OCC)cc4c3C)c(C)c2c1 [Compound 46, 5,5′-Dicarbethoxy-3,3′-dimethyl-2,2′-diindolylmethane] | 0 | 94 | 6.34 | 81 | 5.16 | 100 | 7.51 | – | – | – | – | – | pIC50 [1]: 5.33; pIC50 [2]: 6.32; pIC50 [4]: 6.70
2 | CCOC(=O)Oc1c2[nH]c3ccccc3c2cc2c1[nH]c1ccccc12 [Compound 58, 6-Ethoxycarbonyloxy-5,7-dihydro-indolo[2,3-b]carbazole] | 0 | 100 | – | – | – | – | – | 7.25 | 97 | 5.68 | 100 | 7.74 | –
3 | CCOC(=O)Oc1c2[nH]c3ccc(C(=O)OCC)cc3c2cc2c1[nH]c1ccc(C(=O)OCC)cc12 [Compound 63, 2,10-Dicarbethoxy-6-ethoxycarbonyloxy-5,7-dihydro-indolo[2,3-b]carbazole] | 0 | 100 | – | – | – | – | – | 5.52 | 94 | 5.70 | 66 | 5.85 | –
4 | CCOC(=O)c1ccc2[nH]c3c(OC)c4[nH]c5ccc(C(=O)OCC)cc5c4cc3c2c1 [Compound 74, 2,10-Dicarbethoxy-6-methoxy-5,7-dihydro-indolo[2,3-b]carbazole] | 0 | 80 | – | – | – | – | – | 6.03 | 69 | 5.11 | 100 | 6.70 | pIC50 [8]: 5.40; body weights of the treated mice [9]: unaffected; tumor volume versus control mice ([9]; FIG. 2): less than half of those in the control mice; body weights of the treated mice [10]: unaffected; tumor volume versus control mice ([10]; FIG. 3): significantly less than those in the control mice; body weights of the treated mice [11]: unaffected; tumor volume versus control mice ([11]; FIG. 1): less than half of those in the control mice; pIC50 [12]: 5.29; reduction in the invasive capacity of MDA-MB-231 cells [13]: 90%; inhibition at 5 µM [14]: 22%
5 | c1ccc2c(Cc3c[nH]c4ccccc34)c[nH]c2c1 [DIM, 3,3′-diindolylmethane, reference compound] | – | – | < 5.00 | 20 | 4.51 | 3 | 5.26 | – | – | – | – | – | –
6 | c1ccc2c(Cc3[nH]c4ccccc4c3Cc3c[nH]c4ccccc34)c[nH]c2c1 [LT, 2-(indol-3-ylmethyl) 3,3′-diindolyl-methane, reference compound] | 0 | 100 | 6.22 | 34 | 4.89 | 19 | 5.74 | – | – | – | – | – | –

From patent US7666897B2, “Analogs of indole-3-carbinol metabolites as chemotherapeutic and chemopreventive agents” (SRI International, priority 2002, dated 2010)
